The record followed here is patent US10675267B2, “Methods for detection and eradication of myeloid leukemia stem cells” (priority 2015, dated 2020).

The structures appear in SMILES notation. “Also recorded” adds a separate entry of the source.

The test system of the test is MOLM-13 cells. Description: In vitro splicing of endogenous transcripts (qRT-PCR, RT-PCR) in MOLM-13. It is filed as cell-based. How it is done:
For qRT-PCR analysis of relative total mRNA expression levels or splice isoform-specific expression analyses, cDNA was synthesized using 50 ng-1 […] of template RNA in 20 μL reaction volumes using the First-Strand SUPERSCRIPT™ III Reverse Transcriptase Supermix (Life Technologies) followed by incubation with RNase H according to the manufacturer's protocol and as described previously. All cDNA products were stored at −20° C. Splice isoform-specific primers for PTK2B-202 were designed to bind to unique exon junctions for this transcript, which lacks exon 24. All primers (Table 2) were diluted to 10 μM working dilutions in DNase/RNase-free water. qRT-PCR was performed in duplicate using cDNA (1 μL reverse transcription product per reaction) on an iCycler (Bio-Rad, Hercules, Calif.) using SYBR® GREENER™ Super Mix (Life Technologies) in 25-μL volume reactions containing 0.2 μM of each forward and reverse primer. Cycling conditions were as follows: 50° C. for 2 minutes, then 95° C. for 8 minutes and 30 seconds, followed by 40 cycles of 95° C. for 15 seconds and 60° C. for 60 seconds. Melting curve analysis was performed on each plate according to the manufacturer's instructions. For standard qRT-PCR, human HPRT mRNA transcript levels were used to normalize Ct values obtained for each gene, and relative expression levels were calculated using the 2^−ddCt method. To ensure validity of results, only Ct values <35 were used in gene expression analyses. All primer sets were tested in a no-template control (NTC) reaction containing only water instead of cDNA, and all gave Ct values >35 in NTC reactions.
For evaluation of in vitro splicing activity of endogenous transcripts in HEK293 or a sAML cell line, MOLM-13 (mycoplasma-free and cytogenetically-authenticated cell lines obtained from DMSZ), cells were plated in complete media (DMEM containing 10% FBS for HEK293 and RPMI containing 20% FBS for MOLM-13). The next day, FD-895, 17S-FD-895 or DMSO vehicle controls were added at doses ranging from 0.01-10 μM for 4 hrs of treatment. Cells were lysed in RLT buffer (Qiagen) and processed for RNA extraction and subsequent PCR analyses using primers specific for DNAJB1 or MCL1 (Table 2). For all experiments in cell line, cells obtained from the vendors were frozen down in bulk at low passage numbers and used within 20 passages to minimize risk of cell line misidentification or acquisition of additional chromosomal abnormalities.
For qRT-PCR analysis of relative total mRNA expression levels or splice isoform-specific expression analyses, cDNA was synthesized using 50 ng-1 […] reaction volumes using the First-Strand SUPERSCRIPT™ III Reverse Transcriptase Supermix (Life Technologies) followed by incubation with RNase H according to the manufacturer's protocol and as described previously (Abrahamsson et al., 2009; Crews et al., 2015). All cDNA products were stored at −20° C. Splice isoform-specific primers for PTK2B-202 were designed to bind to unique exon junctions for this transcript, which lacks exon 24. All primers (Supplemental Experimental Procedures Table) were diluted to 10 ∝M working dilutions in DNase/RNase-free water. qRT-PCR was performed in duplicate using cDNA (1 ∝Λ reverse transcription product per reaction) on an iCycler (Bio-Rad, Hercules, Calif.) using SYBR® GREENER™ Super Mix (Life Technologies) in 25-∝A volume reactions containing 0.2 ∝M of each forward and reverse primer. Cycling conditions were as follows: 50° C. for 2 minutes, then 95° C. for 8 minutes and 30 seconds, followed by 40 cycles of 95° C. for 15 seconds and 60° C. for 60 seconds. Melting curve analysis was performed on each plate according to the manufacturer's instructions. For standard qRT-PCR, human HPRT mRNA transcript levels were used to normalize Ct values obtained for each gene, and relative expression levels were calculated using the 2-ddCt method. To ensure validity of results, only Ct values <35 were used in gene expression analyses. […]
In general terms: In qPCR the cycle at which signal appears reflects the starting amount.

Turning to `CC[C@H](OC)[C@@H](C)[C@H]1O[C@@H]1[C@@H](O)[C@H](C)/C=C/C=C(\C)[C@H]1OC(=O)C[C@H](O)CC[C@@](C)(O)[C@@H](OC(C)=O)/C=C/[C@@H]1C` (stereo in doubt) [Formula 17S-FD-895, 17S-FD-895], the “EC50 of the 1 μM treatment condition (time course of DNAJB1 intron 2 retention)” value (MOLM-13, 1 μM, 30 mins-24 hrs, qRT-PCR, 95% C.I.) lay in the range of 3.2 to 6.5 h. For the same molecule, under “MOLM-13, 0.01-10 μM, 4 hrs”, the “MCL1-S expression (qRT-PCR)” value is “low doses of 17S-FD-895 increased MCL1-S expression, this effect was reversed at high doses”. The “PTK2B-202 expression (isoform-specific qRT-PCR)” value (MOLM-13, short-term treatment) is reported as “reduced expression”. In addition, the “time at which the increase in DNAJB1 intron 2 levels occurred after initiation of treatment” value (MOLM-13 sAML cells) worked out at 30 min. Further, under “MOLM-13 sAML cells, 0.01-10 μM 4 hrs, time course 30 mins-24 hrs”, the “DNAJB1 intron 2 retention” value was “rapid and dose-dependent increase; also recorded: time- and dose-dependent increase”. The “MCL1 splicing pattern (RT-PCR, primers flanking exon 2)” value (MOLM-13 versus HEK293, 4 hrs) was “triggered MCL1 exon 2 skipping; also recorded: increased intron retention predominantly in sAML cells (MOLM-13)”.
